# Assay results published in ChEMBL document CHEMBL3046206, “Synthesis of new 4-(2,5-dimethylpyrrol-1-yl)/4-pyrrol-1-yl benzoic acid hydrazide analogs and some derived oxadiazole, triazole and pyrrole ring systems: a novel class of potential antibacterial, antifungal and antitubercular agents” (Med Chem Res, 2013).
# Tests used:
# [1] = tested on: Mycobacterium tuberculosis; assay: Antimycobacterial activity against Mycobacterium tuberculosis H37Rv after 21 days by broth dilution method; type: functional; conditions: 504 h
# [2] = tested on: Escherichia coli; assay: Antibacterial activity against Escherichia coli after 18 hr by broth microdilution technique; type: functional
# [3] = tested on: Staphylococcus aureus; assay: Antibacterial activity against Staphylococcus aureus after 18 hr by broth microdilution technique; type: functional
# [4] = tested on: Saccharomyces cerevisiae; assay: Antifungal activity against Saccharomyces cerevisiae after 18 hr by broth microdilution technique; type: functional
# [5] = tested on: Candida tropicalis; assay: Antifungal activity against Candida tropicalis after 18 hr by broth microdilution technique; type: functional
# [6] = tested on: Klebsiella pneumoniae; assay: Antibacterial activity against Klebsiella pneumoniae after 18 hr by broth microdilution technique; type: functional
# [7] = tested on: Aspergillus niger; assay: Antifungal activity against Aspergillus niger after 18 hr by broth microdilution technique; type: functional
# [8] = tested on: Pseudomonas aeruginosa; assay: Antibacterial activity against Pseudomonas aeruginosa after 18 hr by broth microdilution technique; type: functional
# [9] = tested on: Bacillus subtilis; assay: Antibacterial activity against Bacillus subtilis after 18 hr by broth microdilution technique; type: functional
# [10] = tested on: Enterococcus faecalis; assay: Antibacterial activity against Enterococcus faecalis after 18 hr by broth microdilution technique; type: functional
# [11] = tested on: A549; assay: Cytotoxicity against Homo sapiens (human) A549 cells after 72 hr by MTT assay; type: cell-based; conditions: A549, 72 h
# [12] = tested on: Vero; assay: Cytotoxicity against Chlorocebus aethiops (African green monkey) Vero cells after 72 hr by MTT assay; type: cell-based; conditions: Chlorocebus sabaeus
Structure (SMILES),MIC [1] [µg/mL],MIC [2] [µg/mL],MIC [3] [µg/mL],MIC [4] [µg/mL],MIC [5] [µg/mL],MIC [6] [µg/mL],MIC [7] [µg/mL],MIC [8] [µg/mL],MIC [9] [µg/mL],MIC [10] [µg/mL],IC50 [11] [µM],IC50 [12] [µM]
Cc1ccc(C)n1-c1ccc(C(=O)NN)cc1,62.5,500,62.5,62.5,62.5,62.5,62.5,500,62.5,62.5,,
O=C(NNC(=O)c1ccc(F)c(C(F)(F)F)c1)c1ccc(-n2cccc2)cc1,8,8,62.5,16,4,> 500,8,8,16,31.2,200,196
c1ccc(-c2nnc(-c3ccc(-n4cccc4)cc3)o2)cc1,8,8,31.2,31.2,31.2,> 500,31.2,8,8,31.2,256,250
Brc1ccccc1-c1nnc(-c2ccc(-n3cccc3)cc2)o1,8,8,31.2,31.2,4,> 500,16,8,8,31.2,252,258
Brc1ccc(-c2nnc(-c3ccc(-n4cccc4)cc3)o2)cc1,2,4,31.2,31.2,4,> 500,8,8,4,16,264,260
O=[N+]([O-])c1ccccc1-c1nnc(-c2ccc(-n3cccc3)cc2)o1,2,4,31.2,31.2,31.2,> 500,31.2,4,4,16,267,266
O=[N+]([O-])c1cccc(-c2nnc(-c3ccc(-n4cccc4)cc3)o2)c1,8,8,31.2,31.2,31.2,> 500,31.2,8,8,31.2,256,251
O=[N+]([O-])c1ccc(-c2nnc(-c3ccc(-n4cccc4)cc3)o2)cc1,2,4,31.2,31.2,31.2,> 500,31.2,4,4,16,258,258
Clc1ccc(-c2nnc(-c3ccc(-n4cccc4)cc3)o2)cc1,2,4,31.2,8,4,> 500,16,4,4,16,256,253
Fc1ccc(-c2nnc(-c3ccc(-n4cccc4)cc3)o2)cc1C(F)(F)F,1,2,31.2,4,2,> 500,4,2,1,8,270,268
CC(=O)N1N=C(c2ccc(-n3c(C)ccc3C)cc2)OC1c1ccc(N(C)C)cc1 (centres undefined),16,500,31.2,31.2,31.2,31.2,31.2,500,16,31.2,186,175
Cc1ccc(C)n1NC(=O)c1ccc(-n2c(C)ccc2C)cc1,2,500,2,16,4,62.5,16,500,16,16,225,230
O=C(NNC(=O)c1ccc(-n2cccc2)cc1)c1ccccc1,8,31.2,62.5,31.2,31.2,> 500,31.2,62.5,16,62.5,215,200
O=C(NNC(=O)c1ccccc1Br)c1ccc(-n2cccc2)cc1,8,16,62.5,31.2,8,> 500,16,16,16,62.5,201,198
O=C(NNC(=O)c1ccc(-n2cccc2)cc1)c1ccc(Br)cc1,8,16,62.5,31.2,8,> 500,16,16,16,31.2,201,186
O=C(NNC(=O)c1ccccc1[N+](=O)[O-])c1ccc(-n2cccc2)cc1,8,31.2,62.5,31.2,31.2,> 500,31.2,16,16,31.2,205,182
O=C(NNC(=O)c1cccc([N+](=O)[O-])c1)c1ccc(-n2cccc2)cc1,8,16,62.5,31.2,31.2,> 500,31.2,16,16,62.5,203,195
O=C(NNC(=O)c1ccc([N+](=O)[O-])cc1)c1ccc(-n2cccc2)cc1,8,16,62.5,31.2,31.2,> 500,31.2,16,16,31.2,198,190
O=C(NNC(=O)c1ccc(-n2cccc2)cc1)c1ccc(Cl)cc1,8,16,62.5,31.2,8,> 500,31.2,16,16,31.2,185,179
CC(C)=NNC(=O)c1ccc(-n2c(C)ccc2C)cc1,31.2,500,31.2,62.5,31.2,500,62.5,500,16,31.2,,
NNC(=O)c1ccncc1 [ISONIAZID],0.25,,,,,,,,,,> 450,> 450
